# Results as given in US20230346893A1, “Methods and Compositions for Preventing or Minimizing Epithelial-Mesenchymal Transition” (Innovon Pharmaceuticals Inc., priority 2016, published 2023).
# Assays:
# HK-2 cells [1] = test: TGF-β-induced collagen 1 mRNA expression (EMT marker) in HK-2 cells, quantitative real-time PCR; type: cell-based, human
# HK-2 cells [2] = test: as above; type: cell-based, human; settings: for Effect on expression of collagen in TGF-β-induced HK-2 cells (in words): alone or formulated with albumin, concentrations of Table 1; for Changes in collagen mRNA expression (relative to TGF-β-treated cells): fatty acid concentration 5.0 × 10^−4M, TGF-β 10 ng/ml
# Description: HSA was dissolved in PBS to obtain a concentration of 6.6% (6.6 g/100 ml), and was filtered using a 0.2 μm filter. 75 μl of sodium octanoate or sodium decanoate 10 mM was mixed with 75 μl of HSA 6.6% (without vortex), and incubated 10 min at room temperature. 100 μL of this mixture was used in the assay of Example 4 in a final volume of 1 ml (dilution 1:10).
# Analysis was undertaken to determine the effect of various compositions on TGF-β-induced collagen 1 expression, which is a marker of EMT, on immortalized human proximal tubule epithelial cells (HK-2 cells). HK-2 cells were treated with TGF-β (an inducer of EMT) at a concentration of 10 ng/ml. Expression of the EMT marker collagen 1 mRNA was determined by quantitative real-time PCR.
# Real-Time PCR was using human TaqMan Gene Expression Assay normalized to human GAPDH endogenous control. Reference is TGF-β1 control (RQ=1). The * and ** mean a p value of 0.05 and 0.01 respectively, compared to reference. Tested concentration of the mixture of sodium octanoate and sodium decanoate is 500 μM. The number of experiments is 3 (n=3).
# [3] = test system: human microvascular endothelial cells (HMEC); test: Collagen 1a1 mRNA expression (EndoMT/EMT marker) in TGF-β induced HMEC; type: cell-based; settings: 500 μM; both in presence of albumin (With HSA) or absence of albumin (No HSA); n=3
# Description: Endothelial to mesenchymal transition (EndoMT), which is included in the definition of the expression EMT as used in the present description, can be induced by transforming growth factor (TGF-β). […] Real-Time PCR was using human TaqMan Gene Expression Assay normalized to human GAPDH endogenous control. Reference is TGF-β1 control (RQ=1). The ** and *** mean a p value of 0.01 and 0.001 respectively, compared to reference. Tested concentration of sodium octanoate and sodium decanoate is 500 μM. The number of experiments is 3 (n=3).
# [4] = test system: human hepatocellular carcinoma cell line HepG2; test: Collagen 1a1 mRNA expression (EMT marker) in TGF-β induced HepG2; type: cell-based; settings: 500 μM; both in presence of albumin (With HSA) or absence of albumin (No HSA); n=3
# Description: Real-Time PCR was using human TaqMan Gene Expression Assay normalized to human GAPDH endogenous control. Reference is TGF-β1 control (RQ=1). The *, ** and **** mean a p value of 0.05, 0.01 and 0.0001 respectively, compared to reference. Tested concentration of sodium octanoate and sodium decanoate is 500 μM. The number of experiments is 3 (n=3).
# [5] = test system: human lung epithelial cell A549; test: Collagen 1a1 mRNA expression (EMT marker) in TGF-β induced A549; type: cell-based; settings: 500 μM; both in presence of albumin (With HSA) or absence of albumin (No HSA); n=3
# Description: Real-Time PCR was using human TaqMan Gene Expression Assay normalized to human GAPDH endogenous control. Reference is TGF-β1 control (RQ=1). The *** and **** mean a p value of 0.001 and 0.0001 respectively, compared to reference. Tested concentration of sodium octanoate and sodium decanoate is 500 μM. The number of experiments is 3 (n=3).
# PC-3 cells = test: Scratch assay, migration/invasion of mitomycin-treated EGF-induced PC-3 cells; type: cell-based, human; settings: EGF 50 ng/mL + Mitomycin C 10 μg/mL, 24 h; for EGF-induced PC-3 migration or invasion (FIG. 7, in words): with and without albumin
# From the text: The present experiment exemplifies EMT analysis of cancer cells through invasion/migration of PC-3 cell in a “scratch assay”. This assay is based on the observation that, upon creation of a new artificial gap, so called ‘scratch’, on a confluent cell monolayer, the cells on the edge of the newly created gap will move toward the opening to close the scratch. EGF ([…]) was used to induce the migratory/invasion of PC-3 cells into the scratch. Briefly, culture-inserts are placed in a 24-well cell culture plate. PC-3 cells are seeded in culture-inserts and are incubated overnight at 37° C. in a CO2 incubator. Cells are then starved with serum-free medium for another 24 hours. The insert is removed, leaving a visible 500 μm cell-free gap. Cells were treated for 24 h with EGF at 50 ng/mL and Mitomycin C at 10 μg/mL (Mito+EGF) and with a pro-EMT agent, sodium octanoate (Mito+EGF+sodium octanoate) or an anti-EMT agent, sodium decanoate (Mito+EGF+sodium decanoate), with HSA (second row in FIG. 7) and without HSA (first row in FIG. 7). Pictures are taken at 1 h post-treatment as a confluence control for each group. After 24 h, cells are fixed with Crystal Violet staining and air dried before 24 h post treatment pictures are taken.
# [6] = fatty acid concentration 2.5 × 10^−4M, TGF-β 10 ng/ml
smiles,measurement,setting,value
CCCCCCCCCC(=O)O [Decanoic Acid],Changes in collagen mRNA expression (relative to TGF-β-treated cells),"HK-2 cells [1]; fatty acid concentration 5.8 × 10^−7M, TGF-β 10 ng/ml",105.4% of decrease
CCCCCCCCC(=O)O [Nonanoic Acid],Effect on expression of collagen in TGF-β-induced HK-2 cells (in words),HK-2 cells [2],inhibited the expression of collagen
same,Changes in collagen mRNA expression (relative to TGF-β-treated cells),"HK-2 cells [1]; fatty acid concentration 6.3 × 10^−7M, TGF-β 10 ng/ml",51.4% of decrease
CCCCCCCCCC(=O)[O-].[Na+] [Sodium Decanoate],Effect on expression of collagen in TGF-β-induced HK-2 cells (in words),HK-2 cells [2],decrease (or inhibit) the expression of collagen
same,Changes in collagen mRNA expression (relative to TGF-β-treated cells),HK-2 cells [2],103.4% of decrease
same,"Mesenchymal transition induced by TGF-β (collagen 1a1 mRNA expression, FIG. 4, in words)",[3],reduced significantly the mesenchymal transition
same,"Mesenchymal transition induced by TGF-β (collagen 1a1 mRNA expression, FIG. 5, in words)",[4],reduced significantly the mesenchymal transition
same,"Mesenchymal transition induced by TGF-β (collagen 1a1 mRNA expression, FIG. 6, in words)",[5],reduced significantly the mesenchymal transition
same,"EGF-induced PC-3 migration or invasion (FIG. 7, in words)",PC-3 cells,inhibition of the EGF-induced PC-3 migration or invasion
same,Changes in collagen mRNA expression (relative to TGF-β-treated cells),HK-2 cells [1]; [6],66.6% of decrease
CCCCCCCCCCCC(=O)[O-].[Na+] [Sodium Laurate],Effect on expression of collagen in TGF-β-induced HK-2 cells (in words),HK-2 cells [2],inhibited the expression of collagen
same,Changes in collagen mRNA expression (relative to TGF-β-treated cells),"HK-2 cells [1]; fatty acid concentration 1.0 × 10^−4M, TGF-β 10 ng/ml",113.7% of decrease
"CCCCCCCC(=O)[O-].[Na+] [Sodium Octanoate, reference compound]",Effect on expression of collagen in TGF-β-induced HK-2 cells (in words),HK-2 cells [2],expression of collagen was increased (or stimulated)
same,Changes in collagen mRNA expression (relative to TGF-β-treated cells),HK-2 cells [2],24.1% of increase
same,"Mesenchymal transition induced by TGF-β (collagen 1a1 mRNA expression, FIG. 4, in words)",[3],contrarily
same,"Mesenchymal transition induced by TGF-β (collagen 1a1 mRNA expression, FIG. 5, in words)",[4],contrarily
same,"Mesenchymal transition induced by TGF-β (collagen 1a1 mRNA expression, FIG. 6, in words)",[5],no significant results
same,"EGF-induced PC-3 migration (FIG. 7, in words)",PC-3 cells; combined with albumin,migration is increased
same,"EGF-induced PC-3 migration or invasion (FIG. 7, in words)",PC-3 cells,does not inhibit the cell migration
same,Changes in collagen mRNA expression (relative to TGF-β-treated cells),HK-2 cells [1]; [6],42.2% of increase
CCCCCCCCCC(=O)OCC(COC(=O)CCCCCCCCC)OC(=O)CCCCCCCCC [Tricaprin],Changes in collagen mRNA expression (relative to TGF-β-treated cells),HK-2 cells [1]; triglyceride concentration 5%,120.4% of decrease
CCCCCCCCCCCC(=O)OCC(COC(=O)CCCCCCCCCCC)OC(=O)CCCCCCCCCCC [Trilaurin],Changes in collagen mRNA expression (relative to TGF-β-treated cells),HK-2 cells [1]; triglyceride concentration 5%,84.6% of decrease
CCCCCCCCCCCCCC(=O)OCC(COC(=O)CCCCCCCCCCCCC)OC(=O)CCCCCCCCCCCCC [Trimyristin],Changes in collagen mRNA expression (relative to TGF-β-treated cells),HK-2 cells [1]; triglyceride concentration 5%,52.3% of decrease
CCCCCCCCCCC(=O)O [Undecanoic Acid],Effect on expression of collagen in TGF-β-induced HK-2 cells (in words),HK-2 cells [2],inhibited the expression of collagen
same,Changes in collagen mRNA expression (relative to TGF-β-treated cells),"HK-2 cells [1]; fatty acid concentration 2.7 × 10^−7M, TGF-β 10 ng/ml",120.95% of decrease
